Measurements reported in US20100204508A1, “DENDRITIC COMPOUND AND USE THEREOF” (Industrial Technology Research Institute, priority 2004, published 2010).

How the values were obtained:
[1] = magnetizing relaxation rate via NMR (R1, R2); type: physicochemical; settings: B0 = 0.47 T, vertical relative relaxation
[2] = B0 = 1.0T; cited from earlier work

CNC[C@H](O)[C@@H](O)[C@H](O)[C@H](O)CO.CNC[C@H](O)[C@@H](O)[C@H](O)[C@H](O)CO.O=C([O-])CN(CCN(CC(=O)[O-])CC(=O)O)CCN(CC(=O)[O-])CC(=O)O.[Gd+3] [Magnevist ™]
R1(20 MHz) [1]: 6.14 | R1 (Literature) [2]: R1 = 3.4
